What was measured:
neural stem cells = assay: In vitro differentiation assay on adult neuronal stem cells (beta-III-tubulin promoter dual luciferase reporter); assay type: cell-based, rat; settings: 48 hrs; concentration ranges within 0.01 to 100 μM; versus sham treated cells
Source text: The neuroregenerative effect of the compounds according to the present invention can be assayed in vitro by measuring their stimulation of the differentiation of neuronal stem cells. Therefore, adult neuronal stem cells have to be isolated and subsequently cultivated in a suitable culture medium. After several passages in vitro the stem cells have to be co-transfected with a DNA construct coding for two discriminable reporter proteins one of them under the control of a constitutive promoter and the other under the control of a beta-III-tubulin promoter. The beta-III-tubulin promoter is induced during the process of neuronal stem cell differentiation; therefore the reporter protein under the control of this promoter serves as a marker for the stem cell differentiation in such an in vitro dual reporter assay (Schneider et al., J Clin Investigation 2005; 115:2083-2098). The person skilled in the art knows several suitable constitutive promoters such as the SV40-promoter, the TK-promoter, or the CMV-promoter. As discriminable reporter proteins for such a dual reporter assay one can use discriminable luciferases such as firefly luciferase and Renilla luciferase. The transfected cells have to be incubated with the test compound and with positive and negative controls for normalization and background correction. As a positive control compound one can use retinoic acid (Guan et al., Cell Tissue Res. 2001; 305:171-176; Jacobs et al., Proc. Natl. Acad. Sci. USA 2006; 103:3902-3907), a suitable negative control is the sham treatment of the cells. The neroregenerative activity of the test compound is determined as the ratio of the signal of the beta-III-tubulin promoter controlled reporter versus the signal of the constitutively expressed reporter and is expressed as fold from the control. This assay is suitable to assess the neuroregenerative activity of tranilast and derivatives thereof, but also can be used to screen for other potential neuroregenerative compounds. Preferably, such a screening can be used to test compounds which are already known to be suitable as a medicament in terms of its toxicology, bioavailability, solubility, stability etc.
Neural stem cells were isolated from the subventricular zone of 4 week-old male Wistar rats as described (Maurer et al, Proteome Sci. 2003; 1:4). Cells were cultivated in Neurobasal medium (Invitrogen) supplemented with B27 (Invitrogen), 2 mM L-glutamine, 100 units/ml penicillin, 100 units/ml streptomycin, 20 ng/ml […] growth factor (EGF), 20 ng/ml fibroblast growth factor-2 (FGF-2), and […] heparin. Once a week the neural stem cells were passaged and experiments were performed after 4 weeks in vitro. For DNA transfection, the cells were dissociated and plated on poly-L-ornithin/laminin-coated 96-well plates at a density of 50.000 cells/well. Cotransfection with the pGL3-p-βIII-tubulin vector (100 ng/well) and the pRL SV40 vector (100 ng/well) was carried out according to the FuGene6 Transfection protocol (Roche). The pRL SV40 vector (Promega) served as an internal control vector.
To amplify the class III β-tubulin gene promoter (fragment −450-+54), rat genomic DNA was used as a template for PCR (Dennis et al., Gene 2002; 294:269-277). The amplified fragment was inserted into the Mlu I/Xho I site of the pGL3-Basic firefly luciferase reporter vector (Promega) to generate the pGL3-p-βIII-tubulin experimental vector.
After overnight incubation, the plate was decanted and given in 8-fold replicates fresh medium containing tranilast (Sigma) or vehicle. As a positive control for in vitro differentiation, stem cells were treated by adding 1 μM retinoic acid (Sigma) to the medium missing the mitogens.
After 48 hrs, the cells were harvested to prepare the cellular extracts for luciferase assay following the directions of the manufacturer (Promega). […]

SH-SY5Y neuronal cells [1] = assay: In vitro anti-apoptosis assay (Caspase-Glo 3/7, staurosporine induced apoptosis); assay type: cell-based, human; settings: for anti-apoptotic effect: reduction of the staurosporine induced apoptosis: co-incubation with staurosporine
Experimental: Neuroprotection is attainable via the inhibition of apoptosis of affected neurons. The anti-apoptotic effect of tranilast and its derivatives can be assayed in vitro by measuring the caspase-3 and caspase-7 activities. These members of the cysteine aspartic acid-specific protease (caspase) family play key effector roles in apoptosis in mammalian cells. Cortical neurons have to be isolated and subsequently cultivated in a suitable culture medium. The cells have to be incubated with the test compound in the presence of an apoptotic substance such as staurosporine. Parallel approaches with staurosporine alone and sham treatment of the cells serve as […] controls. The assay allows evaluating whether the test compound can compensate either completely or partially for the apoptotic effect of staurosporine. This assay is suitable to assess the neuroprotective activity of tranilast and derivatives thereof, but also can be used to screen for other potential neuroprotective compounds. Preferably, such a screening can be used to test compounds which are already known to be suitable as a medicament in terms of its toxicology, bioavailability, solubility, stability etc.
The neuroprotective effect of compounds can be assayed in vitro by measuring caspase-3 and caspase-7 activities. These members of the cysteine aspartic acid-specific protease (caspase) family play a key effector role in apoptosis in mammalian cells.
The human neuroblastoma cell-line SH-SY5Y (American Type Culture Collection) maintained in DMEM with high glucose supplemented with 20% FBS was used for the apoptosis assay. Alternatively one can analyse the apoptosis of primary cortical neurons which can be isolated from E18 rats and subsequently cultivated in suitable culture medium. 2.5×10^4 SH-SY5Y cells were seeded in 96-well plates and stimulated 24 h later with tranilast or vehicle in the presence of the apoptosis inducing compound staurosporine (0.5 μM, Calbiochem). After 5 h incubation at 37° C., caspase-Glo 3/7 reagent (Promega) containing luciferase and luminogenic substrate was added to the cells. The cleavage of the substrate by caspase-3 and caspase-7 was detected 30 min later using a luminometer (Berthold Technologies, Mithras LB 940). The Luminescence which is proportional to the amount of caspase activity serves as a measure for the apoptosis of the treated neurons. Tranilast was tested in a range from 0.8 μM to 100 μM final concentration.
Analogously to Example 3, various derivatives of tranilast (N-(3′,4′-methylenedioxycinnamoyl)-anthranilic acid (FIG. 2a (ChemBridge Corporation)), 2-(3′,4′-dimethoxycinnamoylamino)-toluene (FIG. 2b (ChemBridge Corporation)), N-cinnamoyl-anthranilic acid (FIG. 2c (ChemBridge Corporation)), and 2-(3′,4′-dimethoxycinnamoylamino)-anisole (FIG. 2d (Ambinter SARL))) have been analysed for their anti-apoptotic activity. The SH-SY5Y cells have been incubated with these derivatives (1 μM) either alone or in the presence of staurosporine (0.5 μM). Incubation with staurosporine (0.5 μM) alone served as positive control and incubation with vehicle served as negative control. In the case of 3-(4′-chlorocinnamoylamino)-anisole (FIG. 2e (Sigma)) the SH-SY5Y cells have been incubated with this derivative (1 μM) either alone or in the presence of staurosporine […]. Accordingly, incubation with staurosporine […] alone served as positive control and incubation with vehicle served as negative control. The degree of apoptosis relative to the staurosporine control is shown in FIG. 4 a (vehicle (sham): 9% staurosporine (SP): 100%; tranilast: 8%; tranilast plus staurosporine: 75%; derivative A: 3%; derivative A plus staurosporine: 27%; derivative B: 7%; derivative B plus staurosporine: 79%; derivative C: 2%; derivative C plus staurosporine: 20%; derivative D: 7%; derivative D plus staurosporine: 80%) and FIG. 4 b (vehicle (sham): 13%; staurosporine: 100%; derivative E: 6%; derivative E plus staurosporine: 25%).

SH-SY5Y neuronal cells [2] = assay: In vitro viability assay (constitutive Renilla luciferase reporter); assay type: cell-based, human; settings: 0.8 μM to 50 μM, 5 h
Experimental: The viability assay allows for further assessment of test compounds regarding their effect on cells such as neurons. Therefore, a stably transfected cell line (e.g. SH-SY5Y cells) with a reporter construct (e.g. a luciferase construct) has to be incubated with the test compound and in parallel with positive and negative controls (e.g. staurosporine and sham, respectively). Subsequently, the signal generated by the reporter construct serves as a readout for the viability of the cells in the presence of the test compound. The assay enables the evaluation of potential neurotoxic effects of the test compound itself. […]
SH-SY5Y neuronal cells stably transfected with a Renilla luciferase construct under the SV40 promoter were seeded in 96-well plates at a density of 2.5×10^4 cells per well. […] The Renilla luciferase activity was measured 5 h later using a luminometer (Berthold Technologies, Mithras LB 940). […]
Analogously to Example 5, various derivatives of tranilast (N-(3′,4′-methylenedioxycinnamoyl)-anthranilic acid (FIG. 2a (ChemBridge Corporation)), 2-(3′,4′-dimethoxycinnamoylamino)-toluene (FIG. 2b (ChemBridge Corporation)), N-cinnamoyl-anthranilic acid (FIG. 2c (ChemBridge Corporation)), and 2-(3′,4′-dimethoxycinnamoylamino)-anisole (FIG. 2d (Ambinter SARL))) have been analysed for their effect on the viability of neuronal cells. […]

[3] = compound 1 μM alone, FIG. 4a (control staurosporine 0.5 μM)
[4] = compound 1 μM plus staurosporine 0.5 μM, FIG. 4a

Row | SMILES | differentiation of neural stem cells to neurons (relative induction of the class III β-tubulin gene promoter controlled luciferase signal) (neural stem cells) | degree of apoptosis relative to the staurosporine control (SH-SY5Y neuronal cells [1]; [3]) | degree of apoptosis relative to the staurosporine control (SH-SY5Y neuronal cells [1]; [4]) | other results
1 | O=C(C=Cc1ccc2c(c1)OCO2)Nc1ccccc1C(=O)O [derivative A, N-(3′,4′-methylenedioxycinnamoyl)-anthranilic acid] | significantly stimulates the differentiation of neural stem cells to neurons in a dose dependent manner | 3% | 27% | –
2 | COc1ccc(C=CC(=O)Nc2ccccc2C)cc1OC [derivative B, 2-(3′,4′-dimethoxycinnamoylamino)-toluene] | significantly stimulates the differentiation of neural stem cells to neurons in a dose dependent manner | 7% | 79% | –
3 | O=C(C=Cc1ccccc1)Nc1ccccc1C(=O)O [derivative C, N-cinnamoyl-anthranilic acid] | significantly stimulates the differentiation of neural stem cells to neurons in a dose dependent manner | 2% | 20% | –
4 | COc1ccccc1NC(=O)C=Cc1ccc(OC)c(OC)c1 [derivative D, 2-(3′,4′-dimethoxycinnamoylamino)-anisole] | significantly stimulates the differentiation of neural stem cells to neurons in a dose dependent manner | 7% | 80% | –
5 | COc1cccc(NC(=O)C=Cc2ccc(Cl)cc2)c1 [derivative E, 3-(4′-chlorocinnamoylamino)-anisole] | significantly stimulates the differentiation of neural stem cells to neurons in a dose dependent manner | – | – | anti-apoptotic effect: reduction of the staurosporine induced apoptosis (SH-SY5Y neuronal cells [1]): significant reduction of the staurosporine induced apoptosis; degree of apoptosis relative to the staurosporine control (SH-SY5Y neuronal cells [1]; compound 1 μM alone, FIG. 4b (control staurosporine 0.1 μM)): 6%; degree of apoptosis relative to the staurosporine control (SH-SY5Y neuronal cells [1]; compound 1 μM plus staurosporine (1 μM printed, 0.1 μM elsewhere in the source), FIG. 4b): 25%
6 | CN[C@@H]1C[C@H]2O[C@@](C)([C@@H]1OC)n1c3ccccc3c3c4c(c5c6ccccc6n2c5c31)C(=O)NC4 [staurosporine] | – | – | – | degree of apoptosis relative to the staurosporine control (SH-SY5Y neuronal cells [1]; staurosporine 0.1 μM alone (positive control, reference), FIG. 4b): 100%; apoptosis (caspase-3/7 luminescence) relative to staurosporine (SH-SY5Y neuronal cells [1]; staurosporine 0.5 μM alone (positive control, reference)): 100%
7 | COc1ccc(/C=C/C(=O)Nc2ccccc2C(=O)O)cc1OC [tranilast, 2-((3-(3,4-dimethoxyphenyl)-1-oxo-2-propenyl)amino)benzoic acid] | significantly stimulates the differentiation of neural stem cells to neurons | 8% | 75% | apoptosis (caspase-3/7 luminescence) relative to staurosporine (SH-SY5Y neuronal cells [1]; 0.8 μM tranilast plus 0.5 μM staurosporine, 5 h): 84%; apoptosis (caspase-3/7 luminescence) relative to staurosporine (SH-SY5Y neuronal cells [1]; 1.6 μM tranilast plus 0.5 μM staurosporine, 5 h): 74%; apoptosis (caspase-3/7 luminescence) relative to staurosporine (SH-SY5Y neuronal cells [1]; 3.1 μM tranilast plus 0.5 μM staurosporine, 5 h): 76%; apoptosis (caspase-3/7 luminescence) relative to staurosporine (SH-SY5Y neuronal cells [1]; 6.3 μM tranilast plus 0.5 μM staurosporine, 5 h): 74%; apoptosis (caspase-3/7 luminescence) relative to staurosporine (SH-SY5Y neuronal cells [1]; 12.5 μM tranilast plus 0.5 μM staurosporine, 5 h): 58%; apoptosis (caspase-3/7 luminescence) relative to staurosporine (SH-SY5Y neuronal cells [1]; 25 μM tranilast plus 0.5 μM staurosporine, 5 h): 46%; apoptosis (caspase-3/7 luminescence) relative to staurosporine (SH-SY5Y neuronal cells [1]; 50 μM tranilast plus 0.5 μM staurosporine, 5 h): 30%; apoptosis (caspase-3/7 luminescence) relative to staurosporine (SH-SY5Y neuronal cells [1]; 100 μM tranilast plus 0.5 μM staurosporine, 5 h): 15%; anti-apoptotic effect: reduction of the staurosporine induced apoptosis (SH-SY5Y neuronal cells [1]): significant reduction of the staurosporine induced apoptosis; effect on the viability of neuronal cells (Renilla luciferase activity) (SH-SY5Y neuronal cells [2]): did not show any significant effect on the viability of the neuronal cells

From patent US20110112187A1, “Use Of Tranilast And Derivatives Thereof For The Therapy Of Neurological Conditions” (priority 2007, published 2011)
